For assay [1], the target named is T1, SNAT2 (Homo sapiens, UniProt Q96QD8).
T1 sequence (Q96QD8 1-506): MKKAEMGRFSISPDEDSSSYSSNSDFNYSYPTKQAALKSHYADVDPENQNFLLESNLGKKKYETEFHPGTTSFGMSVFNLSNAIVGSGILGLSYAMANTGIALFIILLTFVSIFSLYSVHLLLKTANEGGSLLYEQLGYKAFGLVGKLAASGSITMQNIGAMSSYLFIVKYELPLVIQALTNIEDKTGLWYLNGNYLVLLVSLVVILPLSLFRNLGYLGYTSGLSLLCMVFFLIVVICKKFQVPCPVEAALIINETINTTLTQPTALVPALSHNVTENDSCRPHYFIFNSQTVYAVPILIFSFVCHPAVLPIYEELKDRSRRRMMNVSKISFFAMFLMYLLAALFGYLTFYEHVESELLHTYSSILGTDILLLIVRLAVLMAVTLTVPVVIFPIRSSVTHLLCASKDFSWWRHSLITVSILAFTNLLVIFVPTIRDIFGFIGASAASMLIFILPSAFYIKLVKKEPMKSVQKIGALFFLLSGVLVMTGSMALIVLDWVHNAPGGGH
Put plainly: Radiolabelled proline uptake in amino acid depleted SKOV3 cells. It is filed as cell-based. More on the design: SKOV3 cells pre-incubated in starvation medium for 24 h to induce SNAT2 expression; endogenous in cells; host or cells: SKOV3 ovarian cancer cells, amino acid depleted for 15 or 24 h. The method, then: Functional characterisation of plasma membrane transporters in human cancer cells was determined at 37°C using an array of radiolabelled amino acid substrates. Modified Hanks HEPES-buffered salts solution (mHBSS; 137 mM NaCl; 5.4 mM KCl; 2.7 mM K2HPO4; 1 mM CaCl2; 0.5 mM MgCl2; 0.44 mM KH2PO4; 0.4 mM MgSO4; 5 mM D-glucose; 5 mM HEPES; pH 7.4) was used to wash and incubate cells where sodium dependent transport was measured, while N-methyl-D-glucamine (NMDG) and potassium salts substituted sodium in NMDG mHBSS to measure sodium independent uptake. For the assay, cells were seeded in 35 mm dishes and, once confluent, were washed thrice with warm mHBSS solution and incubated with mHBSS containing an 100 µM amino acid at a final specific activity of ≥2000 cpm/nmol (U-[^14C]amino acids were from PerkinElmer). After 6 min, cells were washed thrice with ice-cold mHBSS, lysed with 500 µl of 0.1 M HCl, detached with a cell scraper and triturated. A 400 µl aliquot was used for scintillation counting, while the remainder was saved for protein mass quantification by Bradford assay. Transport rates were normalised to the protein content of the culture dish.
IC50 were calculated using equation y=ymax(1−x/x+IC50)

Assay [2] concerns the target T1, SNAT2. Put plainly: FMP assay with betaine in amino acid depleted SKOV3 cells. It is filed as cell-based. More on the design: SKOV3 cells were pre-incubated in starvation medium for 15 h to induce SNAT2 expression; endogenous in cells; host or cells: SKOV3 ovarian cancer cells, amino acid depleted for 15 h. As to the method:
The FLIPR Membrane Potential Blue Explorer Kit (Molecular Devices) was used to characterise inhibitors and to optimise a high-throughput compound screen. Cells were seeded at approximately 60,000 cells/well on a 96-well plate and allowed to attach and grow overnight in a cell incubator. The next day, the cells were washed once with mHBSS and incubated in a starvation medium (composed of mHBSS with 1% dialysed heat-inactivated FBS, 23 mM NaHCO3, 10 U/ml penicillin and 10 μg/ml streptomycin) for 24 h. Cells were then washed once with mHBSS and incubated with 50 µl of the mHBSS-resuspended FMP assay dye and 50 µl of mHBSS (with or without inhibitors) and incubated at room temperature for 30 min. The plate was then placed in an EnSpire Multimode plate reader (PerkinElmer) and four sequential measurements of fluorescence were recorded as a baseline reference. […] The excitation wavelength was set to 530 nm and the emission was detected at 565 nm. The Δ fluorescent signal reported in the figures was taken 30 s after substrate addition. After the assay was complete, the liquid content of the plate was carefully removed, and the cell monolayer inspected to ensure it remained intact throughout the course of the assay.

Molecules are shown by their SMILES. “And” between values parts separate entries of the source, which are not always exact repeats. Equal entries are not always repeated.

Here are results for 2 compounds from PMC9532951, “Identification and characterization of a novel SNAT2 (SLC38A2) inhibitor reveals synergy with glucose transport inhibition in cancer cells” (Frontiers in Pharmacology, 2022).

With `Cc1ccc(S(=O)(=O)N(C)c2ccsc2C(=O)NCc2ccccc2C(F)(F)F)cc1` [Compound 57_E, 3-(N-methyl (4-methylphenyl)sulfonamido)-N-(2-trifluoromethylbenzyl)thiophene-2-carboxamide], the “SNAT2 transport rate of proline” value on SNAT2 [1] (Concentration 0.01 uM, betaine resistant transport subtracted) is given as 5.421 nmol / mg protein x 6 min; on SNAT2 [1] (Concentration 0.03 uM) it was 5.227 nmol / mg protein x 6 min; at SNAT2 [1] (Concentration 0.1 uM), 4.344 nmol / mg protein x 6 min; at SNAT2 [1] (Concentration 0.3 uM), 3.331 nmol / mg protein x 6 min; on SNAT2 [1] (Concentration 1 uM), 2.267 nmol / mg protein x 6 min; on SNAT2 [1] (Concentration 3 uM), -0.2231 nmol / mg protein x 6 min. Also, on SNAT2 [1] (Concentration 10 uM), the “SNAT2 transport rate of proline” value is given as -0.6681 nmol / mg protein x 6 min. The IC50 against SNAT2 [1] (betaine-sensitive fraction of proline uptake, SKOV3 AA- (15h)) was 800 ± 400 nM; on SNAT2 [1] (in two different assays), 800 to 3000 nM.
With `C[N+](C)(C)CC(=O)O` [Betaine, betaine], on SNAT2 [2] (SKOV3, 15 h starvation), the Km turned out to be 4.3 ± 0.4 mM. Further, the “FMP fluorescence trace (Figure 4E)” value at SNAT2 [2] (concentration 0.03, time 45) is 36191 and 39302 and 41186; at SNAT2 [2] (concentration 0.03, time 60) it was 36028 and 39595 and 40874; at SNAT2 [2] (concentration 0.03, time 75) it was 36276 and 39484 and 40680; at SNAT2 [2] (concentration 0.03, time 90), 36701 and 39571 and 40731; on SNAT2 [2] (concentration 0.03, time 105) it was 36288; on SNAT2 [2] (concentration 0.1, time 45), 39809 and 43033 and 44738. In addition, the “FMP fluorescence trace (Figure 4E)” value at SNAT2 [2] (concentration 0.1, time 60) is 40091 and 43354 and 44846; on SNAT2 [2] (concentration 0.1, time 75) it was 40044 and 43600 and 44897; on SNAT2 [2] (concentration 0.1, time 90), 40287 and 43518 and 45010; on SNAT2 [2] (concentration 0.3, time 45) it was 39193 and 54954 and 48855; on SNAT2 [2] (concentration 0.3, time 60) it was 39317 and 55361 and 48804; on SNAT2 [2] (concentration 0.3, time 75), 39855 and 55442 and 48718. Moreover, the “FMP fluorescence trace (Figure 4E)” value is 39384 and 55296 and 48820 at SNAT2 [2] (concentration 0.3, time 90); 39825 and 55517 and 48933 at SNAT2 [2] (concentration 0.3, time 105); 52793 and 67651 and 60777 on SNAT2 [2] (concentration 1, time 45); 53223 and 68372 and 61573 at SNAT2 [2] (concentration 1, time 60); 53467 and 68816 and 61749 on SNAT2 [2] (concentration 1, time 75); 53620 and 69372 and 62182 on SNAT2 [2] (concentration 1, time 90). Moreover, the “FMP fluorescence trace (Figure 4E)” value on SNAT2 [2] (concentration 1, time 105) is 53487 and 69294 and 62105; at SNAT2 [2] (concentration 3, time 45) it was 69502 and 81716 and 75888; on SNAT2 [2] (concentration 3, time 60) it was 70408 and 83092 and 76997; at SNAT2 [2] (concentration 3, time 75), 71034 and 84131 and 77980; on SNAT2 [2] (concentration 3, time 90) it was 71787 and 84660 and 78697; at SNAT2 [2] (concentration 3, time 105), 71870 and 85004 and 78476. The “FMP fluorescence trace (Figure 4E)” value on SNAT2 [2] (concentration 10, time 45) is 84051 and 99553 and 93004; at SNAT2 [2] (concentration 10, time 60), 86308 and 101988 and 95225; on SNAT2 [2] (concentration 10, time 75), 87856 and 103721 and 96631; at SNAT2 [2] (concentration 10, time 90), 88823 and 104893 and 97518; at SNAT2 [2] (concentration 10, time 105), 89188 and 106421 and 98442; at SNAT2 [2] (concentration 30, time 45), 86227 and 101310 and 96479. Besides, the “FMP fluorescence trace (Figure 4E)” value at SNAT2 [2] (concentration 30, time 60) was 89361 and 105122 and 98804; at SNAT2 [2] (concentration 30, time 75) it was 91535 and 107806 and 101327; at SNAT2 [2] (concentration 30, time 90), 92748 and 109815 and 102783; at SNAT2 [2] (concentration 30, time 105) it was 93673 and 111181 and 103799.

By IC50 is commonly meant the midpoint of a concentration-inhibition curve. A high value points to lower potency. As a reminder, the Km is the substrate concentration at which the rate is half of its maximum.
